Key:
[1] = cited from earlier work
neointimal hyperplasia = assay: rat carotid artery injury model, inhibition of neointimal hyperplasia by NO donors; format: in vivo
Procedure: Using the standard rat carotid artery injury model, the efficacy of two different diazeniumdiolates with markedly different half-lives at inhibiting neointimal hyperplasia were evaluated. […] The two different NO donors investigated were: 1-[2-(carboxylato)pyrrolidin-1-yl]diazen-1-ium-1,2-diolate (PROLI/NO), a short half-life donor, and diazeniumdiolated poly(acrylonitrile) (PAN/NO), a long half-life donor.
To date, it remains unknown how much NO is required in the vasculature to inhibit the subsequent neointimal hyperplasia from developing in humans. In order to estimate how much NO is required in the vasculature to inhibit the subsequent neointimal hyperplasia from developing in humans, the observed NO release may be compared to: 1) data from animal experiments, and 2) known endogenous NO production in humans. […] Because diazeniumdiolates release 2 moles of NO per mole of compound upon reaction with hydrogen ions, it follows that 20 mg of PROLI/NO releases 160 μmoles of NO. Thus, the current formulation that releases 112 μmole/gm (FIG. 10) is similar to what has been used in rat models. An alternative method of estimating whether the current NO-releasing material will produce sufficient NO is to compare the material against known rates of endogenous NO release. […]

| SMILES | half-life [1] | inhibition of neointimal hyperplasia (neointimal hyperplasia; applied to the periadventitial aspect of an injured artery, 20 mg in rodents) | inhibition of intimal area versus injury alone (neointimal hyperplasia; two weeks after injury, rat carotid artery injury model, p<0.05) |
| --- | --- | --- | --- |
| NCCN(CCN)/[N+]([O-])=N/O [DETA/NO] | 20 h | – | – |
| O=C(O)C1CCCN1[N+]([O-])=NO (stereo not drawn) [PROLI/NO, 1-[2-(carboxylato)pyrrolidin-1-yl]diazen-1-ium-1,2-diolate] | – | 91% | 91.2% |

Reference: patent publication US9801738B2, “Liquid cast biodegradable arterial stent” (Northwestern University, priority 2010, dated 2017)
